Results reported in PubChem BioAssay AID1918957 (Molecular Pharmacology Branch, DTP, NCI, 2023).
pIC50: −log10 of the molar value.

Tested on: NCI-H1876 complex spheroid viability
Assay: Anticancer human tumor NCI-H1876 cell line growth inhibition [LSD1];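 note: spheroids exposed to compounds for one week before readout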;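 for viability, T/C: 100% = DMSO vehicle-treated spheroids so lower means fewer viable cells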
Conditions: for pIC50: curve of first compound; for viability, T/C: stronger effect = lower value
How it was run: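 Multicellular complex spheroids of tumor cells with human endothelial cells (HUVEC) and mesenchymal stem cells; the LSD1 inhibitor iadademstat was combined with standard-of-care or investigational agents. Top concentration at or near clinical Cmax, half-log dilutions; final DMSO ≤0.25%.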

[1] = second compound 0.1 µM, first compound 0.00316 µM
[2] = second compound 0.1 µM, first compound 0.01 µM
[3] = second compound 0.1 µM, first compound 0.0316 µM
[4] = second compound 0.1 µM, first compound 0.1 µM
[5] = second compound 0.316 µM, first compound 0.00316 µM
[6] = second compound 0.316 µM, first compound 0.01 µM
[7] = second compound 0.316 µM, first compound 0.0316 µM
[8] = second compound 0.316 µM, first compound 0.1 µM
[9] = second compound 1 µM, first compound 0.00316 µM
[10] = second compound 1 µM, first compound 0.01 µM
[11] = second compound 1 µM, first compound 0.0316 µM
[12] = second compound 1 µM, first compound 0.1 µM
[13] = second compound 3.16 µM, first compound 0.00316 µM
[14] = second compound 3.16 µM, first compound 0.01 µM
[15] = second compound 3.16 µM, first compound 0.0316 µM
[16] = second compound 3.16 µM, first compound 0.1 µM
[17] = second compound 10 µM, first compound 0.00316 µM
[18] = second compound 10 µM, first compound 0.01 µM
[19] = second compound 10 µM, first compound 0.0316 µM
[20] = second compound 10 µM, first compound 0.1 µM

## COc1cc(Nc2ncc3c(n2)-c2ccc(Cl)cc2C(c2c(F)cccc2OC)=NC3)ccc1C(=O)O + NC1CC1c1ccc(-c2cccc(O)c2)cc1
Second compound 0.1 µM
  pIC50: 7.55
Second compound 0.316 µM
  pIC50: 7.43
Second compound 1 µM
  pIC50: 7.44
Second compound 3.16 µM
  pIC50: 7.52
Second compound 10 µM
  pIC50: 7.39
[1]
  viability, T/C: 69.2%
[2]
  viability, T/C: 61.6%
[3]
  viability, T/C: 48.2%
[4]
  viability, T/C: 35.7%
Second compound 0.1 µM, first compound 0.316 µM
  viability, T/C: 30.2%
Second compound 0.1 µM, first compound 1 µM
  viability, T/C: 16.3%
[5]
  viability, T/C: 64.9%
[6]
  viability, T/C: 64.5%
[7]
  viability, T/C: 50.2%
[8]
  viability, T/C: 37.5%
Second compound 0.316 µM, first compound 0.316 µM
  viability, T/C: 26%
Second compound 0.316 µM, first compound 1 µM
  viability, T/C: 15.8%
[9]
  viability, T/C: 78.4%
[10]
  viability, T/C: 62.1%
[11]
  viability, T/C: 51.5%
[12]
  viability, T/C: 40.5%
Second compound 1 µM, first compound 0.316 µM
  viability, T/C: 27.1%
Second compound 1 µM, first compound 1 µM
  viability, T/C: 16.2%
[13]
  viability, T/C: 65.9%
[14]
  viability, T/C: 58.4%
[15]
  viability, T/C: 49.8%
[16]
  viability, T/C: 38.5%
Second compound 3.16 µM, first compound 0.316 µM
  viability, T/C: 27.9%
Second compound 3.16 µM, first compound 1 µM
  viability, T/C: 15%
[17]
  viability, T/C: 64.3%
[18]
  viability, T/C: 62.1%
[19]
  viability, T/C: 53.1%
[20]
  viability, T/C: 38.7%
Second compound 10 µM, first compound 0.316 µM
  viability, T/C: 31.1%
Second compound 10 µM, first compound 1 µM
  viability, T/C: 17.2%

## Cn1ncnc1C1c2n[nH]c(=O)c3cc(F)cc(c23)NC1c1ccc(F)cc1 (stereo not given) + NC1CC1c1ccc(-c2cccc(O)c2)cc1
Second compound 0.1 µM
  pIC50: < 7.00
Second compound 0.316 µM
  pIC50: < 7.00
Second compound 1 µM
  pIC50: < 7.00
Second compound 3.16 µM
  pIC50: < 7.00
Second compound 10 µM
  pIC50: < 7.00
Second compound 0.1 µM, first compound 0.000316 µM
  viability, T/C: 112%
Second compound 0.1 µM, first compound 0.001 µM
  viability, T/C: 113%
[1]
  viability, T/C: 111%
[2]
  viability, T/C: 97.9%
[3]
  viability, T/C: 92%
[4]
  viability, T/C: 90%
Second compound 0.316 µM, first compound 0.000316 µM
  viability, T/C: 108%
Second compound 0.316 µM, first compound 0.001 µM
  viability, T/C: 106%
[5]
  viability, T/C: 110%
[6]
  viability, T/C: 97.4%
[7]
  viability, T/C: 107%
[8]
  viability, T/C: 90.1%
Second compound 1 µM, first compound 0.000316 µM
  viability, T/C: 108%
Second compound 1 µM, first compound 0.001 µM
  viability, T/C: 115%
[9]
  viability, T/C: 108%
[10]
  viability, T/C: 106%
[11]
  viability, T/C: 96.2%
[12]
  viability, T/C: 87.8%
Second compound 3.16 µM, first compound 0.000316 µM
  viability, T/C: 109%
Second compound 3.16 µM, first compound 0.001 µM
  viability, T/C: 110%
[13]
  viability, T/C: 102%
[14]
  viability, T/C: 104%
[15]
  viability, T/C: 90.2%
[16]
  viability, T/C: 92.9%
Second compound 10 µM, first compound 0.000316 µM
  viability, T/C: 107%
Second compound 10 µM, first compound 0.001 µM
  viability, T/C: 102%
[17]
  viability, T/C: 95.5%
[18]
  viability, T/C: 96.7%
[19]
  viability, T/C: 89.7%
[20]
  viability, T/C: 78.8%

## NS(=O)(=O)OCC1CC(n2ccc3c(NC4CCc5ccccc54)ncnc32)CC1O (stereo not given) + NC1CC1c1ccc(-c2cccc(O)c2)cc1
Second compound 0.1 µM
  pIC50: 7.07
Second compound 0.316 µM
  pIC50: 7.03
Second compound 1 µM
  pIC50: 7.11
Second compound 3.16 µM
  pIC50: 6.89
Second compound 10 µM
  pIC50: 6.73
Second compound 0.1 µM, first compound 0.00949 µM
  viability, T/C: 93.3%
Second compound 0.1 µM, first compound 0.03 µM
  viability, T/C: 58%
Second compound 0.1 µM, first compound 0.0949 µM
  viability, T/C: 52%
Second compound 0.1 µM, first compound 0.3 µM
  viability, T/C: 45.5%
Second compound 0.1 µM, first compound 0.949 µM
  viability, T/C: 44.5%
Second compound 0.1 µM, first compound 3 µM
  viability, T/C: 37.4%
Second compound 0.316 µM, first compound 0.00949 µM
  viability, T/C: 82.4%
Second compound 0.316 µM, first compound 0.03 µM
  viability, T/C: 59.1%
Second compound 0.316 µM, first compound 0.0949 µM
  viability, T/C: 50.6%
Second compound 0.316 µM, first compound 0.3 µM
  viability, T/C: 45.8%
Second compound 0.316 µM, first compound 0.949 µM
  viability, T/C: 42.8%
Second compound 0.316 µM, first compound 3 µM
  viability, T/C: 38.4%
Second compound 1 µM, first compound 0.00949 µM
  viability, T/C: 86.6%
Second compound 1 µM, first compound 0.03 µM
  viability, T/C: 56.8%
Second compound 1 µM, first compound 0.0949 µM
  viability, T/C: 49.4%
Second compound 1 µM, first compound 0.3 µM
  viability, T/C: 47.2%
Second compound 1 µM, first compound 0.949 µM
  viability, T/C: 41.3%
Second compound 1 µM, first compound 3 µM
  viability, T/C: 38.3%
Second compound 3.16 µM, first compound 0.00949 µM
  viability, T/C: 91.1%
Second compound 3.16 µM, first compound 0.03 µM
  viability, T/C: 63%
Second compound 3.16 µM, first compound 0.0949 µM
  viability, T/C: 53.6%
Second compound 3.16 µM, first compound 0.3 µM
  viability, T/C: 46.7%
Second compound 3.16 µM, first compound 0.949 µM
  viability, T/C: 39.9%
Second compound 3.16 µM, first compound 3 µM
  viability, T/C: 36.2%
Second compound 10 µM, first compound 0.00949 µM
  viability, T/C: 87.2%
Second compound 10 µM, first compound 0.03 µM
  viability, T/C: 73.6%
Second compound 10 µM, first compound 0.0949 µM
  viability, T/C: 55.5%
Second compound 10 µM, first compound 0.3 µM
  viability, T/C: 45%
Second compound 10 µM, first compound 0.949 µM
  viability, T/C: 38.6%
Second compound 10 µM, first compound 3 µM
  viability, T/C: 30.9%
